Measurements reported in patent publication US20100093536A1, “CONTROL OF GRASSY WEEDS WITH VINYLGLYCINES AND VINYLGLYCINE-PRODUCING ORGANISMS” (THE STATE OF OREGON ACTING BY AND THROUGH THE STATE BOARD …, priority 2008, published 2010).
“Also recorded” adds a separate entry of the source.

Tests used:
Poa annua seeds [1] = assay: Soil-based test for GAF activity, Poa annua only; format: in vivo; conditions: sprayed twice with 50 mL in 0.1% Tween 20, evaluated 12 days after first treatment
Protocol: (§1) Soil-based tests for GAF activity were performed as follows: Woodburn sandy loam obtained from a Willamette Valley site was used in all soil-based experiments. The soil was dried for two days at 100° F. and screened through a ⅛-inch mesh prior to use. All flats were lined with black ground cloth. Small half-flats (25×25 cm) were filled with 1200 grams of soil. Larger flats (25×50 cm) were filled with 2500 grams of soil. The soil in the flats was fully saturated with water and left to drain in a greenhouse mist chamber for two days prior to seeding.
Soil-based tests involving only Poa annua (annual bluegrass) were conducted in half-flats. A frame covering ½- inch around the margins of the flat was placed on the soil surface, and the soil area within the frame was seeded with 0.3 grams of Poa annua seeds (leaving a ½-inch unseeded border). The seeds were sprayed lightly with distilled water and placed in a growth chamber set at 20° C. with a photoperiod consisting of 8-hour days (50 μEinsteins) and 16-hour nights. […] The treatments were evaluated and photographic records taken 12 days after the initial treatment (14 days from seeding). […]
The effect of AVG on germination of seeds of Poa annua also was determined in a soil-based system using the protocol previously described. […]
The effect of AOA on the germination of Poa annua also was determined in a soil-based system. […]

[2] = test system: Poa annua (annual bluegrass) seeds; assay: Standard GAF Bioassay System (Standard Poa Bioassay), seed germination scored after 7 days; format: in vivo; design: key to GERMINATION SCORE IN THE POA BIOASSAY (±Standard Error of the Mean) / GERMINATION SCORE (±Standard Error of the Mean): germination score, 0 = no germination to 4.0 = first true leaf emerged; conditions: for GAF-like activity in the Standard Poa Bioassay System, in words: pure compounds; for GERMINATION SCORE: purified GAF
Protocol: The seed of Poa annua (or other test seeds) were surface-sterilized by placing two to five grams of seeds in a 50 ml glass beaker, covering the seeds with a 50% (v/v) solution of H2SO4, and stirring vigorously for 5 minutes. The seed/acid mixture was filtered through a Gooch crucible and repeatedly rinsed with tap water to remove residual acid. The seeds were then placed in a beaker and covered with bleach (Clorox®, NaOCl, 5.25%) containing 1% (v/v) polyoxethylene sorbitan monolaurate (Tween®-20). The seeds were stirred for 5 minutes and then repeatedly rinsed with sterile deionized water and placed in a sterile Petri dish. The seeds were used immediately while wet or dried (spread in a thin layer and allowed to dry under a laminar flow hood with the Petri dish lid ajar for 4 to 8 hours) to prevent premature germination.
Bioassays for GAF activity were performed with Poa annua (annual bluegrass) seeds unless otherwise indicated. For each concentration of each test solution, 200 μl aliquots of solution were distributed to each of three wells of a sterile Costar® forty-eight well tissue culture plate (Corning® Costar® Number 3548). Three surface-sterilized Poa annua seeds were aseptically transferred to each well and submerged in the liquid, providing a total of nine observations for each concentration of each solution tested. The lid of the tissue culture plate was sealed with Parafilm® and the plate was placed in a germinator at 20° C. (8 hour day length at a light intensity of 50 μmol/m^2/s, 16 hour dark period) for seven days. Germination was scored on the basis of the following four-point system: • Score 0: No visible signs of germination. • Score 0.5: Seed coat split but plumule and coleorhiza are not visible. • Score 1.0: Plumule and coleorhiza visible. Plumule chlorotic and shorter than length of seed. Root not yet visible. • Score 1.5: Plumule still shorter than length of seed, but root is clearly visible. • Score 2.0: Plumule approximately equal in length to the seed. Root elongated. • Score 2.5: Plumule obviously longer than length of seed. First true leaf still enclosed in coleoptile. • Score 3.0: First true leaf emerged from coleoptile and green. Emerged portion of the leaf is obviously shorter than the coleoptile. • Score 3.5: First true leaf emerged from coleoptile and green. Emerged portion of the leaf is approximately equal in length to the coleoptile. • Score 4.0: First true leaf emerged from coleoptile and green. Emerged portion of the leaf is obviously longer than the coleoptile.

[3] = test system: established perennial ryegrass (Lolium perenne) seedlings; assay: Soil-based test with established perennial ryegrass seedlings: tolerance of the ryegrass; format: in vivo; conditions: at a concentration that arrested germination of Poa annua seeds
Protocol: as §1
(§2) Soil-based tests involving both Poa annua seeds and established perennial ryegrass (Lolium perenne) seedlings were conducted in full sized flats (25×50 cm). After preparation of the soil as described above, five rows of perennial ryegrass seed (0.19 grams seed/row) were planted parallel to the short axis of the flat. The flats were placed in a mist chamber in the greenhouse for one week, and then transferred to a greenhouse bench where they were watered once or twice daily (as needed) with a fogging nozzle for the next 13 days. The ryegrass seedlings were fertilized at the end of the first week on the greenhouse bench. […] The treatments were evaluated and photographic records taken 12 days after the initial treatment (14 days from seeding with Poa annua). […]

Poa annua seeds [4] = assay: Soil-based test with established perennial ryegrass seedlings: germination of Poa annua seeds; format: in vivo; conditions: sprayed twice with 50 mL in 0.1% Tween 20, evaluated 12 days after first treatment
Protocol: as §1, §2

[5] = Solubility of GAF in organic solvents; format: physicochemical
Protocol: Further characterization of GAF described its size and solubility, as well as the stability of its activity over time and under varying temperature and pH conditions (see Banowetz et al., Biological Control, 50: 103-110, 2009; which is hereby incorporated by reference). […] GAF activity in culture filtrates stored at 4° C. diminishes over time, with 10% activity remaining after 17 months.
We have termed this compound a Germination Arrest Factor (GAF), and we have identified this compound as 2-amino-4-formylaminooxy-but-3-enoic acid (also called 2-amino-4-formylaminooxyvinylglycine). The presence of this compound in culture filtrates of Pseudomonas can be assessed by extraction and chromatography procedures described in Example 1. […] Moreover, GAF has particular chromatographic properties that allow it to be detected in the culture filtrates of GAF-producing organisms as a distinctive ninhydrin-staining band located at a particular position on thin-layer chromatography plates when the extraction and chromatography protocols specified here are followed. […] The presence of a DNA sequence that codes for an open reading frame that is distinctive for a particular putative formyl-transferase.

[6] = test system: seeds of cereals (wheat and barley) and dicots; assay: Germination of seeds of cereals and dicots in presence of GAF; format: in vivo; conditions: compared with seeds of grass species
[7] = cited from earlier work
Established seedlings = assay: Sensitivity of established seedlings to GAF; conditions: in vivo
[8] = test system: seeds of grassy weeds and cultivated grasses; assay: Germination arrest / herbicidal activity against grassy weeds (general statements); conditions: in vivo
[9] = exposure limited to a few hours

| SMILES | effect on germination of seeds of Poa annua in a soil-based system (Poa annua seeds [1]) | GERMINATION SCORE IN THE POA BIOASSAY (±Standard Error of the Mean) ([2]; concentration tested 0.03 mM) | GERMINATION SCORE IN THE POA BIOASSAY (±Standard Error of the Mean) ([2]; concentration tested 0.1 mM) | GERMINATION SCORE IN THE POA BIOASSAY (±Standard Error of the Mean) ([2]; concentration tested 0.3 mM) | GERMINATION SCORE IN THE POA BIOASSAY (±Standard Error of the Mean) ([2]; concentration tested 1.0 mM) | GERMINATION SCORE IN THE POA BIOASSAY (±Standard Error of the Mean) ([2]; concentration tested 3.0 mM) | GERMINATION SCORE IN THE POA BIOASSAY (±Standard Error of the Mean) ([2]; concentration tested 10.0 mM) | GERMINATION SCORE IN THE POA BIOASSAY (±Standard Error of the Mean) ([2]; concentration tested 30.0 mM) | GAF-like activity in the Standard Poa Bioassay System, in words [2] | effect on established perennial ryegrass seedlings [3] | germination of Poa annua seeds seeded between rows of established ryegrass (Poa annua seeds [4]) | other results |
| --- | --- | --- | --- | --- | --- | --- | --- | --- | --- | --- | --- | --- |
| NOCC(=O)O [AOA, 2-Aminooxyacetic acid, reference compound] | arrested germination | 2.5 ± 0.1 | 1.7 ± 0.1 | 1.2 ± 0.1 | 1.0 ± 0.0 | 1.0 ± 0.0 | 1.0 ± 0.0 | 0.9 ± 0.1 | arrested the germination | some damage was evident | arrested as expected | – |
| NCCOC=CC(N)C(=O)O (stereo not drawn) [AVG, 2-amino-4-aminoethoxy-but-3-enoic acid, reference compound] | arrest germination | 2.3 ± 0.1 | 1.3 ± 0.1 | 1.0 ± 0.0 | 1.0 ± 0.0 | 1.0 ± 0.0 | 1.0 ± 0.0 | 0.9 ± 0.1 | arrested the germination | little if any effect | completely arrested germination | – |
| NC(/C=C/ONC=O)C(=O)O (stereo not drawn) [GAF, 2-amino-4-formylaminooxy-but-3-enoic acid] | – | – | – | – | – | – | – | – | – | – | – | POA BIOASSAY SCORES (±Standard Error of the Mean) ([2]; GAF Conc. 2X (relative to culture filtrate), partially purified GAF, metal 0 μM): 1.00 ± 0.00; activity of GAF in arresting germination in the presence of copper ions ([2]; appropriate concentrations of copper ions): greatly reduced; GERMINATION SCORE ([2]; pooled Sephadex G15 fractions, Undiluted Pooled Volume (100%)): 1.00; GERMINATION SCORE ([2]; 1.25% Pooled Volume Concentration): 1.92; GERMINATION SCORE ([2]; 2.5% Pooled Volume Concentration): 1.00; GERMINATION SCORE ([2]; 5% Pooled Volume Concentration): 1.00; GERMINATION SCORE ([2]; 10% Pooled Volume Concentration): 1.00; solubility in organic solvents [5]: insoluble or sparingly soluble in organic solvents; also recorded: insoluble in organic solvents that are immiscible in water; germination of seeds of cereals (wheat and barley) and dicots [6]: much less sensitive to GAF; GAF activity remaining ([7]; culture filtrates stored at 4° C., after 17 months): 10%; activity under basic as well as acidic conditions [7, 9]: remains active; temperature at which GAF remains active [7, 9]: up to 65 °C; sensitivity of established seedlings to GAF (Established seedlings): little if any sensitivity; activity against grassy weeds, in words [8]: irreversibly arrests the germination |
